Measured values from ChEMBL document CHEMBL3853342, “Design, synthesis and biological evaluation of novel benzo-α-pyrone containing piperazine derivatives as potential BRAFV600E inhibitors” (Bioorg Med Chem Lett, 2016).

What was measured:
[1] = Antiproliferative activity against human WM266.4 cells harboring BRAF V600E mutant assessed as cell growth inhibition after 24 hrs by MTT assay; assay type: functional, cell-based; settings: WM 266-4, 24 h
[2] = Antiproliferative activity against human A375 cells assessed as cell growth inhibition after 24 hrs by MTT assay; assay type: functional, cell-based; settings: A-375, 24 h
[3] = target: Serine/threonine-protein kinase B-raf (Homo sapiens, UniProt P15056, V600E); assay: Inhibition of human recombinant GST-tagged BRAF catalytic domain (416 to 766 residues) V600E mutant expressed in baculovirus expression system preincubated for 1 hr followed by human full length recombinant N-terminal His-tagged MEK1 substrate addition measured after 25 mins by gel electrophoresis method
Sequence of Serine/threonine-protein kinase B-raf (P15056 2-766 V600E limits assumed): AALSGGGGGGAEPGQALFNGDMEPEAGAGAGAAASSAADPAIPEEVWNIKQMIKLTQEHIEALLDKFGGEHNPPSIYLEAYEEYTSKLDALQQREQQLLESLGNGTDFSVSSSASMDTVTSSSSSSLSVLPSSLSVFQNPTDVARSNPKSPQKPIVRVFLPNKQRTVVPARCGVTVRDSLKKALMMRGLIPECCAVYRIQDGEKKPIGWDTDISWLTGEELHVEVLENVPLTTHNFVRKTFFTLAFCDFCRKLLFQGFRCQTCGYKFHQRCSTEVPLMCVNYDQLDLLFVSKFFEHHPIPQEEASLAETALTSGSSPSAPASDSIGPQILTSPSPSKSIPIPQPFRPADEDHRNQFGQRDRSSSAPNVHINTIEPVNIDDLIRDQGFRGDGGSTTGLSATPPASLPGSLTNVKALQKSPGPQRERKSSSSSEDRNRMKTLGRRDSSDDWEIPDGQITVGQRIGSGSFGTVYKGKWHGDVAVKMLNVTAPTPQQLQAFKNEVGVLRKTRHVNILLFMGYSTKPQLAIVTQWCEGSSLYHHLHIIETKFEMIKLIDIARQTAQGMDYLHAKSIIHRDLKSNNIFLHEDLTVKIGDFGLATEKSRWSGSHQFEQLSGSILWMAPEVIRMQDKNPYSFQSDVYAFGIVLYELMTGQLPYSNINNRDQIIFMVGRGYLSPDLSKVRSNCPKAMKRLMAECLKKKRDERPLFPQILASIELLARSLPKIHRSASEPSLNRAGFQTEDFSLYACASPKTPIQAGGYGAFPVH

[4] = Antiproliferative activity against human WM1361 cells assessed as cell growth inhibition after 24 hrs by MTT assay; assay type: functional, cell-based; settings: WM1361, 24 h
[5] = Cytotoxicity against human 293T cells assessed as cell growth inhibition after 24 hrs by MTT assay; assay type: toxicity, cell-based, HEK-293T

In the case of CCN1CCN(c2c(CO)c(=O)oc3ccccc23)CC1, the IC50 [1] is reported as over 50 µM, the IC50 [2] is reported as over 50 µM and the IC50 [3] is reported as over 50 µM. It also gave an IC50 [4] of over 100 µM and a CC50 at 24 h [5] of over 50 µM.
O=c1oc2ccccc2c(N2CCN(c3ccc(Cl)c(Cl)c3)CC2)c1CO gave an IC50 [1] of 6.04 µM, an IC50 [2] of 7.66 µM and an IC50 [3] of 2.56 µM. It also gave an IC50 [4] of 42.7 µM and a CC50 at 24 h [5] of over 50 µM.
Compound O=c1oc2ccccc2c(N2CCN(c3cccc(C(F)(F)F)c3)CC2)c1CO has an IC50 [1] of 30 µM, an IC50 [2] of 31.9 µM and an IC50 [3] of 24.2 µM. For the same compound, the IC50 [4] was over 50 µM and the CC50 at 24 h [5] was over 50 µM.
With O=c1oc2ccccc2c(N2CCN(c3cccc(Cl)c3Cl)CC2)c1CO the IC50 [1] was 6.56 µM, the IC50 [2] was 8.45 µM and the IC50 [3] was 3.27 µM. For the same compound, the IC50 [4] was 45.9 µM and the CC50 at 24 h [5] was over 50 µM.
